From publication PMC6353076, “Impact of CodY protein on metabolism, sporulation and virulence in Clostridioides difficile ribotype 027” (PLoS ONE, 2019)

Molecular target: T1, CdCodY GAF domain (Clostridioides difficile, UniProt Q18BE1)
T1 construct: gene codY; N-terminal GAF domain, CdCodY(1-156); six molecules in the asymmetric unit
Assay: X-ray crystal structure, […] A
Assay type: binding
Conditions: GAF-domain effector pocket; contacts N40, Y42, D60, S62, F74, F101, E104, K110, S130

T1 sequence (Q18BE1 entry or part of it): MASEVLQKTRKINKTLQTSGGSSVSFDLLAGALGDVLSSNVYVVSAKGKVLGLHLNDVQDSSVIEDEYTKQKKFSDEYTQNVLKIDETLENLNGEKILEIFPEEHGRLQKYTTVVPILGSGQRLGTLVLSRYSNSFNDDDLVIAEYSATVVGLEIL

In the case of CC[C@H](C)[C@H](N)C(=O)O [isoleucine], the “X-ray crystal structure, 1.7 A” value is reported as “The crystal structure of the GAF domain of CdCodY bound to isoleucine was solved”.
